Values of other authors, collected in patent US11458160B2, “Food supplements for use in the prophylaxis and treatment of migraine” (CRISTALFARMA S.R.L., priority 2017, dated 2022).

Key:
[1] = weeks 9-12; 600 mg magnesium per day orally for 12 weeks; 81 patients; p<0.05
[2] = magnesium sulphate intravenously, same amount

SMILES	reduction of attack frequency compared to the baseline [1] [%]	efficacy compared with intravenous ketorolac [2]
O=C([O-])CC(O)(CC(=O)[O-])C(=O)[O-].O=C([O-])CC(O)(CC(=O)[O-])C(=O)[O-].[Mg+2].[Mg+2].[Mg+2] [magnesium, tri-magnesium di-citrate]	41.6	–
O=S(=O)([O-])[O-].[Mg+2] [magnesium sulphate]	–	as effective as an intravenously administered NSAID such as ketorolac
